Values joined by “and” are separate entries in the source; they are usually repeats but may differ in a detail not shown here. Equal entries are not always repeated. Where two headings read alike, the source gives them in different places.
Experiments:
recombinant hMAO-A = target: T1, recombinant hMAO-A (Homo sapiens, UniProt P21397); test: biochemical; type: biochemical; conditions: for IC50: mean ± SEM (n = 3), 100 µM highest concentration tested
T1 sequence (P21397 1-527): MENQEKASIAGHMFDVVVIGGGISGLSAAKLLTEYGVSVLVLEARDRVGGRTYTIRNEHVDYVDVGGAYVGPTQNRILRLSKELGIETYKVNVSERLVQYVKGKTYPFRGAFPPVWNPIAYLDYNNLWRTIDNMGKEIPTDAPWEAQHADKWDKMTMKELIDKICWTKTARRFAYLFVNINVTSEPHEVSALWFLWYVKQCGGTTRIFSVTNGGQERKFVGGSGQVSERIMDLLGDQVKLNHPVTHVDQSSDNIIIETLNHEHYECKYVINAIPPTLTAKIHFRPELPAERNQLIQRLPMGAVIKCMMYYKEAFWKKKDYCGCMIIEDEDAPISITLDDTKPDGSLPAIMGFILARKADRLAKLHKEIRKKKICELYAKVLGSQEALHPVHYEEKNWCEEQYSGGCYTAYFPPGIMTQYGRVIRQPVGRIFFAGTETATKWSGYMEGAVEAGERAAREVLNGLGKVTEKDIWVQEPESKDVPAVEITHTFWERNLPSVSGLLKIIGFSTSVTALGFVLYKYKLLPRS

σ1R = target: T2, σ1R (Cavia porcellus, UniProt Q60492); test: Sigma-1 receptor binding, [3H]-(+)-pentazocine competition; parameters: species or system guinea pig
T2 construct: the thawed membrane preparation of guinea pig brain cortex; from tissue; host or cells: guinea pig brain cortex membranes

σ2R = target: T3, σ2R (Rattus norvegicus, UniProt Q5U3Y7); test: Sigma-2 receptor binding, [3H]-DTG competition
T3 construct: 150 µg of rat liver homogenate were incubated; from tissue; host or cells: rat liver homogenate
T3 sequence (Q5U3Y7 1-176): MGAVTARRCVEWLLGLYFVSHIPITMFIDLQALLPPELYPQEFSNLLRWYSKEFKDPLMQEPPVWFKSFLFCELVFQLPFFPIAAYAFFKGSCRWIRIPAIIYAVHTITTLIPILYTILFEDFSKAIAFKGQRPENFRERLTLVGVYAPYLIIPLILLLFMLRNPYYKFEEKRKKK

[1] = target: T4, human recombinant BACE-1 (hBACE-1) (Homo sapiens, UniProt P56817); test: Human BACE-1 inhibition FRET assay; type: biochemical
T4 construct: purchased Invitrogen
Method: This experiment was carried out according to the protocol described by the manufacturer (Invitrogen) using a FRET assay[54]. […] The intact substrate is weakly fluorescent and becomes highly fluorescent upon enzymatic cleavage. The assays were conducted in 50 mM sodium acetate buffer, pH 4.5, in a final enzyme concentration (1 U/mL). The mixture was incubated for 60 min at 25 °C under dark conditions and then stopped with 2.5 M sodium acetate.

[2] = system: adult mice SGZ-derived NSCs; test: Neurogenic assay on SGZ-derived neural stem cells grown as neurospheres; type: cell-based, mouse; conditions: 10 µM, 7 days plus 3 days differentiation, vs. vehicle-treated cultures
Method: DAPI was used for nuclear staining.
Neural stem cells were isolated from the SGZ of the dentate gyrus of the hippocampus of adult mice and cultured as NS according to previously published protocols[75]^,[76]. […] Now, NS were adhered onto 100 μg/mL poly-L-lysine-coated coverslips and treated for 3 additional days in the presence of serum but in the absence of exogenous growth factors to induce differentiation[77]. Finally, the expression of neuronal markers was analysed by immunocytochemistry using antibodies linked to neurogenesis: β-III-tubulin polyclonal antibody (TuJ clone; Abcam), a protein expressed at early stages of neurogenesis and a monoclonal microtubule-associated protein type 2 (MAP-2) antibody, a classical marker of late neuronal maturation. To visualise primary antibodies Alexa-fluor-labeled secondary antibodies (Molecular probes) were used. Nuclei were stained with DAPI. Fluorescent representative images were acquired in a LSM710 laser scanning spectral confocal microscope (Zeiss). […]
Compound was added to NS cultures for 7 days and then, NS were fixed to a substrate and allowed to differentiate in the presence of 6 for a 3-days additional period. Then, we evaluated the expression of β-III-tubulin (TuJ-1 clone; green) and microtubule-associated protein 2 (MAP-2, red) antibodies to visualise early and late neuronal maturation, respectively.

hAChE = target: T5, hAChE (Homo sapiens, UniProt P22303); test: Kinetic analysis of hAChE inhibition (Lineweaver-Burk); type: biochemical
T5 construct: purchased Sigma Chemical Co
Method: Figure 3. Kinetic study on the mechanism of hAChE inhibition by hybrid 5. (A) Overlaid Lineweaver-Burk reciprocal plots of hAChE initial velocity at increasing substrate concentration (ATCh, 0.2–1.6 mM) in the absence of inhibitor and in the presence of 5 (0–10 µM) are shown. Lines were derived from a least-squares analysis of the data points. (B) Replot of slopes vs. inhibitor concentration for calculating Ki as the intersection in the x-axis. […]
The initial velocity of enzymatic inhibition was measured at four concentrations of the substrate acetylthiocholine (ATCh, 0.2–1.6 mM), in absence and presence of increasing concentrations of inhibitor 5 (0.5–10 µM). For each inhibitor concentration, plotting reciprocals of velocity vs. ATCh concentration (1/V vs. 1/[ATCh]) gave straight lines that were fitted by least-squares analysis (Figure 3). […]

[3] = Oxygen radical absorbance capacity assay (ORAC); conditions: trolox taken as 1.0

T2 sequence (Q60492 whole entry): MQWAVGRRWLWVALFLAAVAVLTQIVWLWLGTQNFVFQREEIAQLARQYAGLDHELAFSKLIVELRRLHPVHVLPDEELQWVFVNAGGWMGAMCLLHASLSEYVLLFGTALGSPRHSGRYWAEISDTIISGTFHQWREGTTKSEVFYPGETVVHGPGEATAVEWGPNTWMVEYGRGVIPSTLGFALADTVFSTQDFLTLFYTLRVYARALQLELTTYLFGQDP
T4 sequence (P56817 46-501): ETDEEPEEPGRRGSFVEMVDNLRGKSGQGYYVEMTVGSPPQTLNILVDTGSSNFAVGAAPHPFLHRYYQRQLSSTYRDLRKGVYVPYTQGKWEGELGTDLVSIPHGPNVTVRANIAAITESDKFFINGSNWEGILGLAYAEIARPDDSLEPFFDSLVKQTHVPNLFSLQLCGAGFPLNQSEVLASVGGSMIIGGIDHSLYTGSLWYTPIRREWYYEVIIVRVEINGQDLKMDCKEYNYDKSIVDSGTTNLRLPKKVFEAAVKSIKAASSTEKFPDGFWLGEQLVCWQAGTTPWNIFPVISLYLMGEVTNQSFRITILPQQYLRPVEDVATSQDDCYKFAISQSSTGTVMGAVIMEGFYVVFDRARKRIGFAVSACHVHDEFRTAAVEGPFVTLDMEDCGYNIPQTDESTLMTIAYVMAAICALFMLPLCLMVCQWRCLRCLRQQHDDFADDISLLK
T5 sequence (P22303 32-614): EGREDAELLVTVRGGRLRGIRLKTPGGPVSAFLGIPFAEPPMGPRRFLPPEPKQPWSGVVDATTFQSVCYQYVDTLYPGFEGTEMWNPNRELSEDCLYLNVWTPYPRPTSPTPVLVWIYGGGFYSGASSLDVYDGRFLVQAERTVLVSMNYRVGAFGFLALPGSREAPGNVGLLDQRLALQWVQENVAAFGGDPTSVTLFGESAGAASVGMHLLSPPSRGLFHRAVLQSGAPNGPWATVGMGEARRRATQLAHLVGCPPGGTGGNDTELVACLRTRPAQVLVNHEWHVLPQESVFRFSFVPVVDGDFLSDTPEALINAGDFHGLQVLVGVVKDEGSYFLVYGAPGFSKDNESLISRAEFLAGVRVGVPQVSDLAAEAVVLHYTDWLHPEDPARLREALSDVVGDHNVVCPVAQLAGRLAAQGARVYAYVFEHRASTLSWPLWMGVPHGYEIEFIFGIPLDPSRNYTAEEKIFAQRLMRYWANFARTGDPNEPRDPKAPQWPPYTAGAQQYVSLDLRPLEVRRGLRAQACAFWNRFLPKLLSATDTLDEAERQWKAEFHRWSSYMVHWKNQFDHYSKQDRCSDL

COc1ccc2oc(C(=O)Nc3ccc(CN(C)Cc4ccccc4)cc3)cc(=O)c2c1 [Compound 1, N-(4-((Benzyl(methyl)amino)methyl)phenyl)-6-methoxy-4-oxo-4H-chromene-2-carboxamide]
preference for hMAO-A compared to hMAO-B (recombinant hMAO-A): at least 4.4 times | IC50 (recombinant hMAO-A): 1600 ± 400 nM | Ki (σ1R): 480 ± 50 nM | Selectivity vs. σ1R (Kiσ2R/Kiσ1R) (σ1R): 3.7 | Ki (σ2R): 1780 ± 430 nM

COc1cc2oc(C(=O)Nc3cccc(CN(C)Cc4ccccc4)c3)cc(=O)c2cc1OC [Compound 6, N-(3-((Benzyl(methyl)amino)methyl)phenyl)-6,7-dimethoxy-4-oxo-4H-chromene-2-carboxamide]
IC50 (recombinant hMAO-A): > 100000 nM | inhibition at 10 µM ([1]; 10 µM, read-out: hBACE-1 inhibition percentage): ~80% | IC50 ([1]; inhibitor concentrations 0.1–100 µM): 6700 ± 800 nM | IC50 (σ1R): 530 nM and 500 nM | Selectivity vs. σ1R (Kiσ2R/Kiσ1R) (σ1R): 2.5 | Ki (σ1R; guinea pig brain cortex membranes, [3H]-(+)-pentazocine, mean ± SEM, read-out: Ki σ1R): 530 ± 70 nM | Ki (σ2R; rat liver homogenate, [3H]-DTG, mean ± SEM, read-out: Ki σ2R): 1300 ± 350 nM | number of TuJ-1 and MAP-2 marked cells (neuronal differentiation of NSCs) [2]: clearly increased

COc1cc2oc(C(=O)Nc3ccc(CN(C)Cc4ccccc4)cc3)cc(=O)c2cc1OC [Compound 5, N-(4-((Benzyl(methyl)amino)methyl)phenyl)-6,7-dimethoxy-4-oxo-4H-chromene-2-carboxamide]
IC50 (recombinant hMAO-A): 9000 ± 100 nM | Ki (hAChE): 950 nM | mechanism of hAChE inhibition (hAChE; Lineweaver-Burk): a mixture of competitive and non-competitive mechanisms

CN(Cc1ccccc1)Cc1ccc(NC(=O)c2cc(=O)c3cc(O)ccc3o2)cc1 [Compound 2, N-(4-((Benzyl(methyl)amino)methyl)phenyl)-6-hydroxy-4-oxo-4H-chromene-2-carboxamide]
IC50 (recombinant hMAO-A): 7000 ± 800 nM | ORAC, trolox equivalents [3]: 1.6 mmol of trolox/mmol of tested compound and 1.6 ± 0.2 mmol of trolox/mmol of tested compound | Ki (σ1R): 380 ± 50 nM | Selectivity vs. σ1R (Kiσ2R/Kiσ1R) (σ1R): 4.2 | Ki (σ2R): 1600 ± 280 nM

Reference: PMC6407579, “New flavonoid – N,N-dibenzyl(N-methyl)amine hybrids: Multi-target-directed agents for Alzheimer´s disease endowed with neurogenic properties” (Journal of Enzyme Inhibition and Medicinal Chemistry, 2019)
